The numbers were not newly measured in US20220143227A1, “Method of Treatment of Neuroendocrine Tumors That Over-Express Somatostatatin Receptors” (ADVANCED ACCELERATOR APPLICATIONS, priority 2015, published 2022), which cites them from elsewhere.

In one data set the test system is pos-tdocetaxel CRPC. The following applies: phase III trial.
Another data set deals with lymphocytes. Particulars: B- versus T-lymphocytes.
Data set [1] has as its system human xenograft tumor model of NET. Particulars: in vivo.
For data set [2] the following is noted: human, in vivo.
Data set [3] deals with progressive neuroendocrine tumors of pancreatic origin, and NETs of gastrointestinal (GI) or lung origin. The following applies: Phase 3 trials.

Where two headings read alike, the source gives them in different places.

As to “ipilimumab: antibody that targets the CTLA-4/B7 receptor complex, approved for unresectable or metastatic melanoma”, the “improvement in OS with addition of ipilimumab to RT” value in the data set on pos-tdocetaxel CRPC is on record as “no significant improvement in OS”. Besides, the “abscopal effect among patients with local response” value in the data set with advanced melanoma (13 patients with local response) is 85%. Besides, in the data set with advanced melanoma (21 patients, RT after ipilimumab progression), the no local regression is recorded as 38%. Further, the “median OS” value in the data set on advanced melanoma (all 21 patients) is recorded as 13 months; in the data set on advanced melanoma (patients with abscopal responses), 22.4 months; with advanced melanoma (patients without abscopal responses), 8.3 months.
`C[C@@H](O)[C@H](NC(=O)[C@@H]1CSSC[C@H](NC(=O)[C@@H](Cc2ccccc2)NC(=O)CN2CCN(CC(=O)[O-])CCN(CC(=O)[O-])CCN(CC(=O)[O-])CC2)C(=O)N[C@@H](Cc2ccc(O)cc2)C(=O)N[C@H](Cc2c[nH]c3ccccc23)C(=O)N[C@@H](CCCCN)C(=O)N[C@@H]([C@@H](C)O)C(=O)N1)C(=O)O.[177Lu+3]` [Lutathera, [177]Lutetium-DOTA[O]-Tyr[3]-Octreotate]: the “lymphocyte toxicity, specificity” value in the data set on lymphocytes is reported as “more specific to B-lymphocytes”. Also, in data set [1], the “CD86+ APC infiltration” value is listed as “increased CD86+ APC infiltration” and the “expression of CD86 on APC” value is “increased expression of CD86”. Besides, the “severe hematologic toxicity Grade 3-4” value in data set [2] was 3.1 % of the cases.
Take `CO[C@H]1C[C@@H]2CC[C@@H](C)[C@@](O)(O2)C(=O)C(=O)N2CCCC[C@H]2C(=O)O[C@H]([C@H](C)C[C@@H]2CC[C@@H](OCCO)[C@H](OC)C2)CC(=O)[C@H](C)/C=C(\C)[C@@H](O)[C@@H](OC)C(=O)[C@H](C)C[C@H](C)/C=C/C=C/C=C/1C` [Everolimus]: the PFS in data set [3] is recorded as 11 months.
